Assay results as given in ChEMBL document CHEMBL1142413.

Key:
[1] = species on record: Homo sapiens; assay: Ratio of IC50 for human CB1R S383A mutant to IC50 for human wild type CB1R
[2] = species on record: Homo sapiens; assay: Ratio of IC50 for human CB1R K192L mutant to IC50 for human wild type CB1R
[3] = species on record: Homo sapiens; assay: Ratio of IC50 for human CB1R W279A mutant to IC50 for human wild type CB1R
[4] = species on record: Homo sapiens; assay: Ratio of IC50 for human CB1R F200L mutant to IC50 for human wild type CB1R

Fold change [1]: < 2
Fold change [2]: 17
Fold change [3]: > 1000
Fold change [4]: 3
SMILES: Cc1c(C(=O)NN2CCCCC2)nn(-c2ccc(Cl)cc2Cl)c1-c1ccc(Cl)cc1
